Counter-ions that a name gives are not always drawn.
Target: T1, human CTPS1 (Homo sapiens, UniProt P17812)
T1 sequence (P17812 1-591): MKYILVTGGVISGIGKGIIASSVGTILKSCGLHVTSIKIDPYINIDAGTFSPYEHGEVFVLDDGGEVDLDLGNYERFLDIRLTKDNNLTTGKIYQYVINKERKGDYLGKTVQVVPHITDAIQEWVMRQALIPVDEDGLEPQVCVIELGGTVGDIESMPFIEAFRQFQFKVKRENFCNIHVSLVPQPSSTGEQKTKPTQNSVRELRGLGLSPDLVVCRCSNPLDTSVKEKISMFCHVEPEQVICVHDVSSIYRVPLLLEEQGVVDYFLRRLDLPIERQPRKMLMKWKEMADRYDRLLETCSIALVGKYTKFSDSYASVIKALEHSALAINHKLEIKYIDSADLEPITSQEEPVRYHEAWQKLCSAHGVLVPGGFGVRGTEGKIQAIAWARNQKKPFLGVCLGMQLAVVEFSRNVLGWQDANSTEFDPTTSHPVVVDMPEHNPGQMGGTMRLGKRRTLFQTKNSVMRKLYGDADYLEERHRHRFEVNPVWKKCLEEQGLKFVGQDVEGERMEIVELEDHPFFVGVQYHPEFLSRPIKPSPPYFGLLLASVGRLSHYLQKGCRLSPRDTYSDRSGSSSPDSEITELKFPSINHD
Test: ADP-Glo assay, human CTPS1 enzyme inhibition
Format: biochemical
Conditions: wild-type human CTPS1, 25 nM enzyme; ADP-Glo; read-out: ADP-Glo_WT_hCTPS1—25 nM_IC50 (IC50)
Outline: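 ADP-Glo luminescence quantified ADP produced by 25 nM purified human CTPS1 (full length, FLAG-His tagged) at 25° C within the linear phase. Final substrates: ATP 120 μM, UTP 160 μM, GTP 60 μM, L-glutamine 100 μM; 1% DMSO; pH 7.4 HEPES buffer with Mg2+, KCl, DTT. Compound pre-incubated with enzyme 10 min, then with ATP/UTP 10 min.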

CCOc1cncc(-c2cnc(C(=O)N[C@@H](c3cc(NS(=O)(=O)C4CC4)ccn3)[C@@H](C)N3C[C@H]4C[C@@H]3CO4)s2)n1 [I-169, N-((1R,2R)-2-((1R,4R)-2-oxa-5-azabicyclo[2.2.1]heptan-5-yl)-1-(4-(cyclopropanesulfonamido)pyridin-2-yl)propyl)-5-(6-ethoxypyrazin-2-yl)thiazole-2-carboxamide]
IC50: 25 to 50 nM

CCOc1ccn2ncc(-c3cnc(C(=O)NCc4cc(NS(=O)(=O)C5CC5)ccn4)s3)c2c1 [I-170, N-((4-(cyclopropanesulfonamido)pyridin-2-yl)methyl)-5-(5-ethoxypyrazolo[1,5-a]pyridin-3-yl)thiazole-2-carboxamide]
IC50: > 100 nM

CCOc1cncc(-c2ccc(C(=O)NCc3cc(NS(=O)(=O)C4CC4)ccn3)cn2)n1 [I-172, N-((4-(cyclopropanesulfonamido)pyridin-2-yl)methyl)-6-(6-ethoxypyrazin-2-yl)nicotinamide]
IC50: 25 to 50 nM

CCOc1cncc(-c2ccc(C(=O)NCc3cc(NS(=O)(=O)C4CC4)ccn3)cc2F)n1 [I-173, N-((4-(cyclopropanesulfonamido)pyridin-2-yl)methyl)-4-(6-ethoxypyrazin-2-yl)-3-fluorobenzamide]
IC50: 5 to 25 nM

CCOc1cncc(-c2ccc(C(=O)NCc3cc(NS(=O)(=O)C4CC4)ccn3)c(F)c2F)n1 [I-175, N-((4-(cyclopropanesulfonamido)pyridin-2-yl)methyl)-4-(6-ethoxypyrazin-2-yl)-2,3-difluorobenzamide]
IC50: 5 to 25 nM

CCOc1cncc(-c2cnc(C(=O)N[C@H](C)c3cc(NS(=O)(=O)C4CC4)ccn3)s2)n1 [I-176, (R)-N-(1-(4-(cyclopropanesulfonamido)pyridin-2-yl)ethyl)-5-(6-ethoxypyrazin-2-yl)thiazole-2-carboxamide]
IC50: 5 to 25 nM

CCOc1cncc(-c2cnc(C(=O)N[C@@H](C)c3cc(NS(=O)(=O)C4CC4)ccn3)s2)n1 [I-177, (S)-N-(1-(4-(cyclopropanesulfonamido)pyridin-2-yl)ethyl)-5-(6-ethoxypyrazin-2-yl)thiazole-2-carboxamide]
IC50: 5 to 25 nM

CCOc1cncc(-c2cnc(C(=O)NCc3ccnc(NS(=O)(=O)C4CC4)n3)s2)n1 [I-178, N-((2-(cyclopropanesulfonamido)pyrimidin-4-yl)methyl)-5-(6-ethoxypyrazin-2-yl)thiazole-2-carboxamide]
IC50: 25 to 50 nM

CCOc1cncc(-c2cnc(C(=O)NC3(c4cc(NS(=O)(=O)C5CC5)ccn4)CC3)s2)n1 [I-179, N-(1-(4-(cyclopropanesulfonamido)pyridin-2-yl)cyclopropyl)-5-(6-ethoxypyrazin-2-yl)thiazole-2-carboxamide]
IC50: 5 to 25 nM

CCOc1cncc(-c2cnc(C(=O)NCc3cncc(NS(=O)(=O)C4CC4)n3)s2)n1 [I-180, N-((6-(cyclopropanesulfonamido)pyrazin-2-yl)methyl)-5-(6-ethoxypyrazin-2-yl)thiazole-2-carboxamide]
IC50: 5 to 25 nM

O=C(NCc1cc(NS(=O)(=O)C2CC2)ccn1)c1ccc(-c2cnn3ccc(Cl)cc23)cc1F [I-181, 4-(5-chloropyrazolo[1,5-a]pyridin-3-yl)-N-((4-(cyclopropanesulfonamido)pyridin-2-yl)methyl)-2-fluorobenzamide]
IC50: 25 to 50 nM

CCOc1cncc(-c2cnc(C(=O)NC3(c4cc(NS(=O)(=O)C5CC5)ccn4)CCN(C)C3)s2)n1 (stereo not shown) [I-182, N-(3-(4-(cyclopropanesulfonamido)pyridin-2-yl)-1-methylpyrrolidin-3-yl)-5-(6-ethoxypyrazin-2-yl)thiazole-2-carboxamide, formic acid salt]
IC50: 5 to 25 nM

CCOc1cncc(-c2cnc(C(=O)N[C@@H](CCN3CCCCC3)c3cccc(NS(=O)(=O)C(F)F)c3)s2)n1 [I-183, (S)-N-(1-(3-((difluoromethyl)sulfonamido)phenyl)-3-(piperidin-1-yl)propyl)-5-(6-ethoxypyrazin-2-yl)thiazole-2-carboxamide]
IC50: > 100 nM

CCOc1cncc(-c2cnc(C(=O)N[C@H](CCN3CCCCC3)c3cccc(NS(=O)(=O)C(F)F)c3)s2)n1 [I-184, (R)-N-(1-(3-((difluoromethyl)sulfonamido)phenyl)-3-(piperidin-1-yl)propyl)-5-(6-ethoxypyrazin-2-yl)thiazole-2-carboxamide]
IC50: 5 to 25 nM

CCOc1cncc(-c2cnc(C(=O)N[C@@H](CCNC3CC3)c3cc(NS(=O)(=O)C4CC4)ccn3)s2)n1 [I-185, (S)-N-(1-(4-(cyclopropanesulfonamido)pyridin-2-yl)-3-(cyclopropylamino)propyl)-5-(6-ethoxypyrazin-2-yl)thiazole-2-carboxamide]
IC50: 50 to 100 nM

CCOc1cncc(-c2cnc(C(=O)N[C@H](CCNC3CC3)c3cc(NS(=O)(=O)C4CC4)ccn3)s2)n1 [I-186, (R)-N-(1-(4-(cyclopropanesulfonamido)pyridin-2-yl)-3-(cyclopropylamino)propyl)-5-(6-ethoxypyrazin-2-yl)thiazole-2-carboxamide]
IC50: 5 to 25 nM

CCOc1cncc(-c2cnc(C(=O)N[C@H](c3cccc(NS(=O)(=O)C(F)F)c3)[C@H]3CCOC3)s2)n1 [I-187, N-((S)-(3-((difluoromethyl)sulfonamido)phenyl)((R)-tetrahydrofuran-3-yl)methyl)-5-(6-ethoxypyrazin-2-yl)thiazole-2-carboxamide]
IC50: 5 to 25 nM

CCOc1cncc(-c2cnc(C(=O)N[C@H](c3cccc(NS(=O)(=O)C(F)F)c3)[C@@H]3CCOC3)s2)n1 [I-188, N-((S)-(3-((difluoromethyl)sulfonamido)phenyl)((S)-tetrahydrofuran-3-yl)methyl)-5-(6-ethoxypyrazin-2-yl)thiazole-2-carboxamide]
IC50: 5 to 25 nM

CCOc1cncc(-c2cnc(C(=O)N[C@@H](c3cccc(NS(=O)(=O)C(F)F)c3)[C@@H]3CCOC3)s2)n1 [I-189, N-((R)-(3-((difluoromethyl)sulfonamido)phenyl)((S)-tetrahydrofuran-3-yl)methyl)-5-(6-ethoxypyrazin-2-yl)thiazole-2-carboxamide]
IC50: ≤ 5 nM

CCOc1cncc(-c2cnc(C(=O)N[C@@H](c3cccc(NS(=O)(=O)C(F)F)c3)[C@H]3CCOC3)s2)n1 [I-190, N-((R)-(3-((difluoromethyl)sulfonamido)phenyl)((R)-tetrahydrofuran-3-yl)methyl)-5-(6-ethoxypyrazin-2-yl)thiazole-2-carboxamide]
IC50: 5 to 25 nM

CCOc1cncc(-c2cnc(C(=O)N[C@@H](C[C@@H]3COCCN3C)c3cccc(NS(=O)(=O)C(F)F)c3)s2)n1 [I-191, N-((S)-1-(3-((difluoromethyl)sulfonamido)phenyl)-2-((R)-4-methylmorpholin-3-yl)ethyl)-5-(6-ethoxypyrazin-2-yl)thiazole-2-carboxamide]
IC50: 25 to 50 nM

CCOc1cncc(-c2cnc(C(=O)N[C@@H](C[C@H]3COCCN3C)c3cccc(NS(=O)(=O)C(F)F)c3)s2)n1 [I-192, N-((S)-1-(3-((difluoromethyl)sulfonamido)phenyl)-2-((S)-4-methylmorpholin-3-yl)ethyl)-5-(6-ethoxypyrazin-2-yl)thiazole-2-carboxamide]
IC50: 5 to 25 nM

CCOc1cncc(-c2cnc(C(=O)N[C@H](CC3COCCN3C)c3cccc(NS(=O)(=O)C(F)F)c3)s2)n1 (stereo partly drawn) [I-193, N-((1R)-1-(3-((difluoromethyl)sulfonamido)phenyl)-2-(4-methylmorpholin-3-yl)ethyl)-5-(6-ethoxypyrazin-2-yl)thiazole-2-carboxamide]
IC50: 50 to 100 nM

CCOc1cncc(-c2cnc(C(=O)N[C@H](c3cccc(NS(=O)(=O)C(F)F)c3)C3CCOCC3)s2)n1 [I-194, (S)-N-((3-((difluoromethyl)sulfonamido)phenyl)(tetrahydro-2H-pyran-4-yl)methyl)-5-(6-ethoxypyrazin-2-yl)thiazole-2-]
IC50: 5 to 25 nM

CCOc1cncc(-c2cnc(C(=O)N[C@@H](c3cccc(NS(=O)(=O)C(F)F)c3)C3CCOCC3)s2)n1 [I-195, (R)-N-((3-((difluoromethyl)sulfonamido)phenyl)(tetrahydro-2H-pyran-4-yl)methyl)-5-(6-ethoxypyrazin-2-yl)thiazole-2-carboxamide]
IC50: 5 to 25 nM

O=C(N[C@H](c1cccc(NS(=O)(=O)C(F)F)c1)C1CCOCC1)c1ncc(-c2cnn3ccc(Cl)cc23)s1 [I-196, (S)-5-(5-chloropyrazolo[1,5-a]pyridin-3-yl)-N-((3-((difluoromethyl)sulfonamido)phenyl)(tetrahydro-2H-pyran-4-yl)methyl)thiazole-2-carboxamide]
IC50: 5 to 25 nM

O=C(N[C@@H](c1cccc(NS(=O)(=O)C(F)F)c1)C1CCOCC1)c1ncc(-c2cnn3ccc(Cl)cc23)s1 [I-197, (R)-5-(5-chloropyrazolo[1,5-a]pyridin-3-yl)-N-((3-((difluoromethyl)sulfonamido)phenyl)(tetrahydro-2H-pyran-4-yl)methyl)thiazole-2-carboxamide]
IC50: 5 to 25 nM

CCOc1cncc(-c2cnc(C(=O)N[C@H](c3cccc(NS(=O)(=O)C(F)F)c3)[C@H]3COCCO3)s2)n1 [I-198, N-((R)-(3-((difluoromethyl)sulfonamido)phenyl)((S)-1,4-dioxan-2-yl)methyl)-5-(6-ethoxypyrazin-2-yl)thiazole-2-carboxamide]
IC50: 5 to 25 nM

From patent US20250270200A1, “CTPS1 INHIBITORS AND USES THEREOF” (Nimbus Clotho, Inc., priority 2022, published 2025)
